# Data published in ChEMBL document CHEMBL3872231, “Design, synthesis, and biological evaluation of fluorinated imidazo[1,2-a]pyridine derivatives with potential antipsychotic activity” (Eur J Med Chem, 2016).
# Activity calls are given as the source filed them. No cut-off for these calls is given here.
# Legend:
# [1] = Displacement of [3H]-flunitrazepam from rat brain GABA-A receptor benzodiazepine site after 20 mins by liquid scintillation counting
# Rattus norvegicus [2] = species: Rattus norvegicus; experiment: Potency index, ratio of zolpidem Ki to compound Ki for rat brain GABA-A receptor benzodiazepine site
# [3] = target: T1, GABA-A receptor; alpha-1/beta-2/gamma-2 (Homo sapiens, UniProt P14867+P18507+P47870); experiment: Positive allosteric modulation of human recombinant GABA-A receptor alpha1beta2gamma2 expressed in HEK293 cells assessed as potentiation of GABA induced chloride currents treated every 60 secs measured for 7 secs by electrophysiological method; assay type: cell-based
# T1 sequence (P14867 whole entry): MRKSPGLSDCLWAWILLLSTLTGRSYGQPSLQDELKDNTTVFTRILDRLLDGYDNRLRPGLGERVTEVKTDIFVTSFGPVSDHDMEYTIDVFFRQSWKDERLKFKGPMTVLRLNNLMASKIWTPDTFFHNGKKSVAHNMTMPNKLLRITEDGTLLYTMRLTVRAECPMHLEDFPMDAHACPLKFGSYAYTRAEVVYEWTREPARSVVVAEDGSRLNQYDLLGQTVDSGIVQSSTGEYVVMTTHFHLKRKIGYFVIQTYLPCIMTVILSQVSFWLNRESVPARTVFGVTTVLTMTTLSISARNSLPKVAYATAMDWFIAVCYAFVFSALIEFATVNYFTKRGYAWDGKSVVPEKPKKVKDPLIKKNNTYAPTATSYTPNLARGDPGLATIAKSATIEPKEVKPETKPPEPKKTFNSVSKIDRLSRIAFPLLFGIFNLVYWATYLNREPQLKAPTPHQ
# T1 sequence (P47870 whole entry): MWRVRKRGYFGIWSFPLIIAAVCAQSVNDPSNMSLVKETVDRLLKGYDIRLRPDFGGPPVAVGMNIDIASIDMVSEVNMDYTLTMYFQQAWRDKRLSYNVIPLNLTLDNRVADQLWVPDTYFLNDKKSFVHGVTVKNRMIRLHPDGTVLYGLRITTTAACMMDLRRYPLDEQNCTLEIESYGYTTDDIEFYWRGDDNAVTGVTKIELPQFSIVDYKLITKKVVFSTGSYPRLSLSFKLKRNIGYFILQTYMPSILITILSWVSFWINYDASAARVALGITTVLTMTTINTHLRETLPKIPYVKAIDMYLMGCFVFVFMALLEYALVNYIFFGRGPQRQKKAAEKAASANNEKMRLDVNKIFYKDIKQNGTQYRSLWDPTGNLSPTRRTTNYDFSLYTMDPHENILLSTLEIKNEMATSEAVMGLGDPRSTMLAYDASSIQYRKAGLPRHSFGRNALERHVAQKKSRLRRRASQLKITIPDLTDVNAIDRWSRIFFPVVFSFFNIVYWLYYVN
# T1 sequence (P18507 whole entry): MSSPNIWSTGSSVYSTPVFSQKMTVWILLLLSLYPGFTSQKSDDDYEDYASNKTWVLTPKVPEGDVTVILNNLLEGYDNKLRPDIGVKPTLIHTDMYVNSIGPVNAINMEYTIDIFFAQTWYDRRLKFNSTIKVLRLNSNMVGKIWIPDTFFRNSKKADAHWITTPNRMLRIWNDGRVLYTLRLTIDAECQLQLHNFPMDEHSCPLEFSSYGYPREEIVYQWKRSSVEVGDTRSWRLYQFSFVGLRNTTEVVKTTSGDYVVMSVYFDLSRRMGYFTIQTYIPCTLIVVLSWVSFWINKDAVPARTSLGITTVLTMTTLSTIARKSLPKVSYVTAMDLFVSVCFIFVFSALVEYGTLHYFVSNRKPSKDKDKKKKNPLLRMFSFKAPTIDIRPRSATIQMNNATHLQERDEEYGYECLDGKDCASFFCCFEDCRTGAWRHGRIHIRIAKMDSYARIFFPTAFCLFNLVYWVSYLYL
# [4] = Drug metabolism in human liver microsomes assessed as 2-(6-fluoro-2-(4-(hydroxymethyl)phenyl)imidazo[1,2-a]pyridin-3-yl)-N,N-dimethylacetamide formation at 20 uM preincubated for 15 mins followed by NADPH addition measured after 60 mins by UPLC-MS/MS analysis; assay type: ADME; conditions: 1 h
# [5] = target: T2, GABA-A receptor; alpha-1/beta-2/gamma-2 (Homo sapiens) (UniProt P14867+P47870+P18507); experiment: Positive allosteric modulation of human recombinant GABA-A receptor alpha1beta2gamma2 expressed in HEK293 cells assessed as potentiation of GABA induced chloride currents at 1 uM treated every 60 secs measured for 7 secs by electrophysiological method; assay type: cell-based
# HepG2 [6] = experiment: (§1) Hepatotoxicity in human HepG2 cells assessed as intracellular ATP level after 24 hrs by luminescence based ATP detection assay; assay type: toxicity, cell-based; conditions: hepg2, 24 h
# HepG2 [7] = experiment: Hepatotoxicity in human HepG2 cells assessed as cell membrane damage after 48 hrs by luminescence assay; assay type: toxicity, cell-based; conditions: hepg2, 48 h
# HepG2 [8] = experiment: Hepatotoxicity in human HepG2 cells assessed as cell membrane damage after 24 hrs by luminescence assay; assay type: toxicity, cell-based; conditions: hepg2, 24 h
# HepG2 [9] = experiment: (§2) Hepatotoxicity in human HepG2 cells assessed as decrease in cell viability after 48 hrs by PrestoBlue assay; assay type: toxicity, cell-based; conditions: hepg2, 48 h
# HepG2 [10] = experiment: (§3) Hepatotoxicity in human HepG2 cells assessed as decrease in cell viability after 24 hrs by PrestoBlue assay; assay type: toxicity, cell-based; conditions: hepg2, 24 h
# HepG2 [11] = experiment: (§4) Hepatotoxicity in human HepG2 cells assessed as loss of mitochondrial membrane potential after 24 hrs by JC-1 staining based fluorescence assay; assay type: toxicity, cell-based; conditions: hepg2, 24 h
# HepG2 [12] = experiment: (§5) Hepatotoxicity in human HepG2 cells assessed as intracellular ATP level after 48 hrs by luminescence based ATP detection assay; assay type: toxicity, cell-based; conditions: hepg2, 48 h
# [13] = target: T2, GABA-A receptor; alpha-1/beta-2/gamma-2 (Homo sapiens); experiment: Positive allosteric modulation of human recombinant GABA-A receptor alpha1beta2gamma2 expressed in HEK293 cells assessed as potentiation of GABA induced chloride currents at 1 uM treated every 60 secs measured for 7 secs by electrophysiological method relative to GABA; assay type: cell-based
# [14] = Metabolic stability in human liver microsomes at 20 uM preincubated for 15 mins followed by NADPH addition measured after 60 mins by UPLC-MS/MS analysis; assay type: ADME; conditions: 1 h
# [15] = Drug level in human liver microsomes treated with 20 uM of 2-(6-fluoro-2-p-tolylimidazo[1,2-a]pyridin-3-yl)-N,N-dimethylethanamide preincubated for 15 mins followed by NADPH addition measured after 60 mins by UPLC-MS/MS analysis; assay type: ADME; conditions: 1 h
# [16] = Drug level in human liver microsomes treated with 20 uM of zolpidem preincubated for 15 mins followed by NADPH addition measured after 60 mins by UPLC-MS/MS analysis; assay type: ADME; conditions: 1 h
# [17] = Drug metabolism in human liver microsomes assessed as 2-(2-(4-(hydroxymethyl)phenyl)-6-methylimidazo[1,2-a]pyridin-3-yl)-N,N-dimethylacetamide formation at 20 uM preincubated for 15 mins followed by NADPH addition measured after 60 mins by UPLC-MS/MS analysis; assay type: ADME; conditions: 1 h
# [18] = Plasma elimination half life in human; assay type: ADME; conditions: read-out: beta t1/2
# Rattus norvegicus [19] = experiment: Antipsychotic activity in rat assessed as reversal of amphetamine-induced hyperlocomotion at 1 mg/kg, ip treated for 30 mins prior to test followed by amphetamine administration 15 mins prior to test by open field test; assay type: functional, organism-based
# [20] = as §1; assay type: toxicity, cell-based; conditions: HepG2 cells
# [21] = as §2; assay type: toxicity, cell-based; conditions: HepG2 cells
# [22] = as §3; assay type: toxicity, cell-based; conditions: HepG2 cells
# [23] = as §4; assay type: toxicity, cell-based; conditions: HepG2 cells
# [24] = as §5; assay type: toxicity, cell-based; conditions: HepG2 cells
# Rattus norvegicus [25] = experiment: Antipsychotic activity in rat assessed as reversal of amphetamine-induced hyperlocomotion at 3 mg/kg, ip treated for 60 mins prior to test followed by amphetamine administration 15 mins prior to test by open field test; assay type: functional, organism-based
# Rattus norvegicus [26] = experiment: Antipsychotic activity in ip dosed rat assessed as reversal of amphetamine-induced hyperlocomotion administered 30 mins before administration of amphetamine measured for 15 mins by open field test; assay type: functional
# Rattus norvegicus [27] = experiment: Toxicity in rat assessed as effect on behavioral changes at 1 mg/kg, ip administered 60 mins; assay type: organism-based; conditions: in vivo, 1 h
# Rattus norvegicus [28] = experiment: Toxicity in rat assessed as cataleptogenic effects at 1 mg/kg, ip administered 60 mins; assay type: organism-based; conditions: in vivo, 1 h
# Rattus norvegicus [29] = experiment: Toxicity in rat assessed as myorelaxant effects at 1 mg/kg, ip administered 60 mins; assay type: organism-based; conditions: in vivo, 1 h
# Rattus norvegicus [30] = experiment: Antipsychotic activity in rat assessed as reversal of amphetamine-induced hyperlocomotion at 3 mg/kg, ip treated for 30 mins prior to test followed by amphetamine administration 15 mins prior to test by open field test; assay type: functional, organism-based
# Rattus norvegicus [31] = experiment: Toxicity in rat assessed as decrease in spontaneous locomotor activity at 1 mg/kg, ip treated for 60 mins by open field test; assay type: organism-based; conditions: in vivo, 1 h
smiles,measurement,setting,value
CN(C)C(=O)Cc1c(-c2ccc(F)cc2F)nc2ccc(C(F)(F)F)cn12,Ki,[1],830 nM
CN(C)C(=O)Cc1c(-c2ccc(C(F)(F)F)cc2)nc2ccc(C(F)(F)F)cn12,Ki,[1],487 nM
CN(C)C(=O)Cc1c(-c2ccc(F)c(F)c2)nc2ccc(F)cn12,Ki,[1],57.5 to 58 nM
CN(C)C(=O)Cc1c(-c2ccc(F)cc2F)nc2ccc(F)cn12,Ki,[1],180 nM
Cc1ccc(-c2nc3ccc(F)cn3c2CC(=O)N(C)C)cc1,Ratio Ki,Rattus norvegicus [2],1.8
same,EC50,[3],1270 nM
same,Ki,[1],25 nM
same,Drug metabolism,[4],Metabolite_Detected
same,Activity,[5],Active
same,Activity,HepG2 [6],Non-Toxic
same,Activity,HepG2 [7],Non-Toxic
same,Activity,HepG2 [8],Non-Toxic
same,Activity,HepG2 [9],Non-Toxic
same,Activity,HepG2 [10],Non-Toxic
same,Activity,HepG2 [11],Non-Toxic
same,Activity,HepG2 [12],Non-Toxic
same,fold change (FC),[13],1.5
CN(C)C(=O)Cc1c(-c2ccc(F)cc2)nc2ccc(C(F)(F)F)cn12,Ki,[1],510 nM
CN(C)C(=O)Cc1c(-c2ccc(F)cc2)nc2ccc(F)cn12,EC50,[3],408 nM
same,Ki,[1],55.6 to 56 nM
same,Activity,[5],Active
same,Activity,HepG2 [6],Non-Toxic
same,Stability,[14],Stable
same,Activity,HepG2 [7],Non-Toxic
same,Activity,HepG2 [8],Non-Toxic
same,Activity,HepG2 [9],Non-Toxic
same,Activity,HepG2 [10],Non-Toxic
same,Activity,HepG2 [11],Non-Toxic
same,Activity,HepG2 [12],Non-Toxic
same,fold change (FC),[13],1.8
CN(C)C(=O)Cc1c(-c2ccccc2)nc2ccc(F)cn12,Ki,[1],130 nM
Cc1ccc(-c2nc3ccc(CO)cn3c2CC(=O)N(C)C)cc1,Drug metabolism,[15],Metabolite_Detected
CN(C)C(=O)Cc1c(-c2ccc(C(F)(F)F)cc2)nc2ccc(F)cn12,Ki,[1],68 nM
Cc1ccc2nc(-c3ccc(CO)cc3)c(CC(=O)N(C)C)n2c1,Drug metabolism,[16],Metabolite_Detected
Cc1ccc(-c2nc3ccc(C)cn3c2CC(=O)N(C)C)cc1 [ZOLPIDEM],Ki,[1],44 nM
same,Activity,HepG2 [6],Non-Toxic
same,Stability,[14],Stable
same,Drug metabolism,[17],Metabolite_Detected
same,Activity,HepG2 [7],Non-Toxic
same,Activity,HepG2 [8],Non-Toxic
same,half-life,[18],≤ 2 h
same,Activity,HepG2 [9],Non-Toxic
same,Activity,HepG2 [10],Non-Toxic
same,Activity,HepG2 [11],Non-Toxic
same,Activity,HepG2 [12],Non-Toxic
same,fold change (FC),[13],2.5
same,Activity,Rattus norvegicus [19],Active
CN(C)C(=O)Cc1c(-c2cccc(F)c2)nc2ccc(F)cn12,Ki,[1],140 nM
CN(C)C(=O)Cc1c(-c2cccc(F)c2)nc2ccc(C(F)(F)F)cn12,Ki,[1],730 nM
N#CC(C#N)=NNc1cccc(Cl)c1 [CARBONYL CYANIDE M-CHLOROPHENYLHYDRAZONE],IC50 at 24 h,[20],9800 nM
same,Activity,HepG2 [7],Non-Toxic
same,Activity,HepG2 [8],Non-Toxic
same,IC50 at 48 h,[21],6000 nM
same,IC50 at 24 h,[22],22000 nM
same,IC50 at 24 h,[23],36000 nM
same,IC50 at 48 h,[24],7200 nM
Cc1ccc2nc(-c3ccc(F)cc3)c(CC(=O)N(C)C)n2c1,EC50,[3],238 nM
same,Ki,[1],59.6 to 60 nM
same,Activity,Rattus norvegicus [25],Active
same,Activity,[5],Active
same,Activity,Rattus norvegicus [26],Dose-dependent effect
same,minimal effective dose,Rattus norvegicus [26]; read-out: MED,1 mg/kg
same,Activity,Rattus norvegicus [27],Toxic
same,Activity,Rattus norvegicus [28],Non-Toxic
same,Activity,HepG2 [6],Non-Toxic
same,Stability,[14],Stable
same,Activity,HepG2 [7],Non-Toxic
same,Activity,HepG2 [8],Non-Toxic
same,Activity,Rattus norvegicus [29],Non-Toxic
same,Activity,HepG2 [9],Non-Toxic
same,Activity,HepG2 [10],Non-Toxic
same,Activity,HepG2 [11],Non-Toxic
same,Activity,HepG2 [12],Non-Toxic
same,fold change (FC),[13],1.9
same,Activity,Rattus norvegicus [30],Active
same,Activity,Rattus norvegicus [31],Toxic
